Data from publication PMC5451150 (Journal of Medicinal Chemistry, 2016).

Key:
[1] = Intrinsic clearance in mouse liver microsomes; type: in vitro ADME
[2] = Plasma protein binding, mouse; type: in vitro ADME
[3] = Plasma protein binding, rat; type: in vitro ADME
[4] = Plasma protein binding, dog; type: in vitro ADME
[5] = Plasma protein binding, human; type: in vitro ADME
[6] = Rat pharmacokinetics (iv and po); type: in vivo; details: po 25 mg/kg, male Sprague–Dawley rats
[7] = Dog pharmacokinetics (iv and po); type: in vivo; details: po 5 mg/kg, male beagle dogs
[8] = target: T1, EZH2 C663S (Homo sapiens, UniProt O75530+Q15910, C663S); test: EZH2 C663S incorporated into reconstituted PRC2, potency; type: biochemical; details: single substitution cysteine to serine at position 663, reconstituted PRC2
T1 construct: made in house

[9] = tested on: cytochrome P450 enzymes 1A2, 2C9, 2C8, 2D6, and 3A4; test: Time-dependent inhibition (TDI) of cytochrome P450 enzymes; type: in vitro ADME
[10] = tested on: panel of fifty-four physiologically relevant receptors, transporters, and ion channels; test: Secondary pharmacology panel; details: at 10 μM; fifty-four targets
[11] = target: DNMT1 (Homo sapiens, UniProt P26358); test: Methyltransferase selectivity panel: DNMT1; type: biochemical; details: substrate Poly dl-dC; top concentration 10 µM
[12] = target: DNMT3a (Homo sapiens, UniProt Q9Y6K1); test: Methyltransferase selectivity panel: DNMT3a; type: biochemical; details: substrate Lambda DNA; top concentration 10 µM
[13] = target: DNMT3b (Homo sapiens, UniProt Q9UBC3); test: Methyltransferase selectivity panel: DNMT3b; type: biochemical; details: substrate Lambda DNA; top concentration 10 µM
[14] = target: DOT1L (Homo sapiens, UniProt Q8TEK3); test: Methyltransferase selectivity panel: DOT1L; type: biochemical; details: substrate Nucleosomes; top concentration 10 µM
[15] = target: G9a (Homo sapiens, UniProt Q96KQ7); test: Methyltransferase selectivity panel: G9a; type: biochemical; details: substrate Histone H3 (1-21); top concentration 10 µM
[16] = target: GLP (Homo sapiens, UniProt Q9H9B1); test: Methyltransferase selectivity panel: GLP; type: biochemical; details: substrate Histone H3 (1-21); top concentration 10 µM
[17] = target: MLL1 (Homo sapiens, UniProt Q03164); test: Methyltransferase selectivity panel: MLL1; type: biochemical; details: substrate Nucleosomes; top concentration 10 µM
[18] = target: MLL2 (Homo sapiens, UniProt O14686); test: Methyltransferase selectivity panel: MLL2; type: biochemical; details: substrate Core Histone; top concentration 10 µM
[19] = target: MLL3 (Homo sapiens, UniProt Q8NEZ4); test: Methyltransferase selectivity panel: MLL3; type: biochemical; details: substrate Core Histone; top concentration 10 µM
[20] = target: MLL4; test: Methyltransferase selectivity panel: MLL4; type: biochemical; details: substrate Core Histone; top concentration 10 µM
[21] = target: NSD1 (Homo sapiens, UniProt Q96L73); test: Methyltransferase selectivity panel: NSD1; type: biochemical; details: substrate Nucleosomes; top concentration 10 µM
[22] = target: NSD2 (Homo sapiens, UniProt O96028); test: Methyltransferase selectivity panel: NSD2; type: biochemical; details: substrate Nucleosomes; top concentration 10 µM
[23] = target: NSD2 (E1099K) (Homo sapiens, UniProt O96028, E1099K); test: Methyltransferase selectivity panel: NSD2 (E1099K); type: biochemical; details: substrate Nucleosomes; top concentration 10 µM
[24] = target: PRDM9 (Homo sapiens, UniProt Q9NQV7); test: Methyltransferase selectivity panel: PRDM9; type: biochemical; details: substrate Histone H3; top concentration 10 µM
Chain of PRDM9 (Q9NQV7 whole entry): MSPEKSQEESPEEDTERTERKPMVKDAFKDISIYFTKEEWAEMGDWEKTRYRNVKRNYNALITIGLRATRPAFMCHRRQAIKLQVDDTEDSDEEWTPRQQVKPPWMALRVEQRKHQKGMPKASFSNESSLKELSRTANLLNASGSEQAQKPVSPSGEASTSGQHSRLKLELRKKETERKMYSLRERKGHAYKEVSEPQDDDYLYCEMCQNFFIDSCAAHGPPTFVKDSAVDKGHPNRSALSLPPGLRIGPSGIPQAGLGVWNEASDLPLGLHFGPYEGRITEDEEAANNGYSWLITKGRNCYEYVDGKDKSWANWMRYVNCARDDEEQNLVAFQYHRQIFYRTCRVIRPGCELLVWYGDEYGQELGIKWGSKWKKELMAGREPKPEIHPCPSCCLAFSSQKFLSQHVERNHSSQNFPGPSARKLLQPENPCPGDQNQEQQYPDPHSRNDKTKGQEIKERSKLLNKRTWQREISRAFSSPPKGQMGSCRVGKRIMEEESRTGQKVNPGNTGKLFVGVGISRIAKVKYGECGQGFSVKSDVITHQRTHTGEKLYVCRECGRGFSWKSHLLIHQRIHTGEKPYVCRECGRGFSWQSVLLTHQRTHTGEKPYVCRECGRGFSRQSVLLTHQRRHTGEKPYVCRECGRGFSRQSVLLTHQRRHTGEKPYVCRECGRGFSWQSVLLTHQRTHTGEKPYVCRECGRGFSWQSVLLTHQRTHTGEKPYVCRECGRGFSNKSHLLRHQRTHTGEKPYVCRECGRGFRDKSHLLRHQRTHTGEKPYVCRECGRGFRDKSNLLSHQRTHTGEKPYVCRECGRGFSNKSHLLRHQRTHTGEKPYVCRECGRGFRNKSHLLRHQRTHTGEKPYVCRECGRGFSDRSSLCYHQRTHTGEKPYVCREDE

[25] = target: PRMT1 (Homo sapiens, UniProt Q99873); test: Methyltransferase selectivity panel: PRMT1; type: biochemical; details: substrate Histone H4; top concentration 10 µM
[26] = target: PRMT3 (Homo sapiens, UniProt O60678); test: Methyltransferase selectivity panel: PRMT3; type: biochemical; details: substrate Histone H4; top concentration 10 µM
Chain of PRMT3 (O60678 whole entry): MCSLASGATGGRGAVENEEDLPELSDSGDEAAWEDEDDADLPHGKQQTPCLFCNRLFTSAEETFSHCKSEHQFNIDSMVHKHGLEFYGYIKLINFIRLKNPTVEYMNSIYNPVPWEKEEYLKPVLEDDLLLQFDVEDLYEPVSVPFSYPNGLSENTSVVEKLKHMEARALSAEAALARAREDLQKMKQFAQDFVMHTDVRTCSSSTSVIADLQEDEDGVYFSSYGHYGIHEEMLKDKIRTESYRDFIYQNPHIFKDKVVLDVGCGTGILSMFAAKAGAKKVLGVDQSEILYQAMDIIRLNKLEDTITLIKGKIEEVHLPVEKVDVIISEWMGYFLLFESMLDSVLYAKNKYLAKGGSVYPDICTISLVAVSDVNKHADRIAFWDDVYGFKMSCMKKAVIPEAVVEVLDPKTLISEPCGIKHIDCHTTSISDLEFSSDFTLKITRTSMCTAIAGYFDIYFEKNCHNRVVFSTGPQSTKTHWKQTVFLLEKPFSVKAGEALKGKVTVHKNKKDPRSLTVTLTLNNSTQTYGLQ

[27] = target: PRMT4 (Homo sapiens, UniProt Q86X55); test: Methyltransferase selectivity panel: PRMT4; type: biochemical; details: substrate Histone H3; top concentration 10 µM
[28] = target: PRMT5 (Homo sapiens, UniProt O14744); test: Methyltransferase selectivity panel: PRMT5; type: biochemical; details: substrate Histone 2A; top concentration 10 µM
[29] = target: PRMT8 (Homo sapiens, UniProt Q9NR22); test: Methyltransferase selectivity panel: PRMT8; type: biochemical; details: substrate Histone H4; top concentration 10 µM
[30] = target: SET1B (Homo sapiens, UniProt Q9UPS6); test: Methyltransferase selectivity panel: SET1B; type: biochemical; details: substrate Core Histone; top concentration 10 µM
[31] = target: SET8 (Homo sapiens, UniProt Q9NQR1); test: Methyltransferase selectivity panel: SET8; type: biochemical; details: substrate Nucleosomes; top concentration 10 µM
[32] = target: SETD2 (Homo sapiens, UniProt Q9BYW2); test: Methyltransferase selectivity panel: SETD2; type: biochemical; details: substrate Histone H4; top concentration 10 µM
Chain of SETD2 (Q9BYW2 whole entry): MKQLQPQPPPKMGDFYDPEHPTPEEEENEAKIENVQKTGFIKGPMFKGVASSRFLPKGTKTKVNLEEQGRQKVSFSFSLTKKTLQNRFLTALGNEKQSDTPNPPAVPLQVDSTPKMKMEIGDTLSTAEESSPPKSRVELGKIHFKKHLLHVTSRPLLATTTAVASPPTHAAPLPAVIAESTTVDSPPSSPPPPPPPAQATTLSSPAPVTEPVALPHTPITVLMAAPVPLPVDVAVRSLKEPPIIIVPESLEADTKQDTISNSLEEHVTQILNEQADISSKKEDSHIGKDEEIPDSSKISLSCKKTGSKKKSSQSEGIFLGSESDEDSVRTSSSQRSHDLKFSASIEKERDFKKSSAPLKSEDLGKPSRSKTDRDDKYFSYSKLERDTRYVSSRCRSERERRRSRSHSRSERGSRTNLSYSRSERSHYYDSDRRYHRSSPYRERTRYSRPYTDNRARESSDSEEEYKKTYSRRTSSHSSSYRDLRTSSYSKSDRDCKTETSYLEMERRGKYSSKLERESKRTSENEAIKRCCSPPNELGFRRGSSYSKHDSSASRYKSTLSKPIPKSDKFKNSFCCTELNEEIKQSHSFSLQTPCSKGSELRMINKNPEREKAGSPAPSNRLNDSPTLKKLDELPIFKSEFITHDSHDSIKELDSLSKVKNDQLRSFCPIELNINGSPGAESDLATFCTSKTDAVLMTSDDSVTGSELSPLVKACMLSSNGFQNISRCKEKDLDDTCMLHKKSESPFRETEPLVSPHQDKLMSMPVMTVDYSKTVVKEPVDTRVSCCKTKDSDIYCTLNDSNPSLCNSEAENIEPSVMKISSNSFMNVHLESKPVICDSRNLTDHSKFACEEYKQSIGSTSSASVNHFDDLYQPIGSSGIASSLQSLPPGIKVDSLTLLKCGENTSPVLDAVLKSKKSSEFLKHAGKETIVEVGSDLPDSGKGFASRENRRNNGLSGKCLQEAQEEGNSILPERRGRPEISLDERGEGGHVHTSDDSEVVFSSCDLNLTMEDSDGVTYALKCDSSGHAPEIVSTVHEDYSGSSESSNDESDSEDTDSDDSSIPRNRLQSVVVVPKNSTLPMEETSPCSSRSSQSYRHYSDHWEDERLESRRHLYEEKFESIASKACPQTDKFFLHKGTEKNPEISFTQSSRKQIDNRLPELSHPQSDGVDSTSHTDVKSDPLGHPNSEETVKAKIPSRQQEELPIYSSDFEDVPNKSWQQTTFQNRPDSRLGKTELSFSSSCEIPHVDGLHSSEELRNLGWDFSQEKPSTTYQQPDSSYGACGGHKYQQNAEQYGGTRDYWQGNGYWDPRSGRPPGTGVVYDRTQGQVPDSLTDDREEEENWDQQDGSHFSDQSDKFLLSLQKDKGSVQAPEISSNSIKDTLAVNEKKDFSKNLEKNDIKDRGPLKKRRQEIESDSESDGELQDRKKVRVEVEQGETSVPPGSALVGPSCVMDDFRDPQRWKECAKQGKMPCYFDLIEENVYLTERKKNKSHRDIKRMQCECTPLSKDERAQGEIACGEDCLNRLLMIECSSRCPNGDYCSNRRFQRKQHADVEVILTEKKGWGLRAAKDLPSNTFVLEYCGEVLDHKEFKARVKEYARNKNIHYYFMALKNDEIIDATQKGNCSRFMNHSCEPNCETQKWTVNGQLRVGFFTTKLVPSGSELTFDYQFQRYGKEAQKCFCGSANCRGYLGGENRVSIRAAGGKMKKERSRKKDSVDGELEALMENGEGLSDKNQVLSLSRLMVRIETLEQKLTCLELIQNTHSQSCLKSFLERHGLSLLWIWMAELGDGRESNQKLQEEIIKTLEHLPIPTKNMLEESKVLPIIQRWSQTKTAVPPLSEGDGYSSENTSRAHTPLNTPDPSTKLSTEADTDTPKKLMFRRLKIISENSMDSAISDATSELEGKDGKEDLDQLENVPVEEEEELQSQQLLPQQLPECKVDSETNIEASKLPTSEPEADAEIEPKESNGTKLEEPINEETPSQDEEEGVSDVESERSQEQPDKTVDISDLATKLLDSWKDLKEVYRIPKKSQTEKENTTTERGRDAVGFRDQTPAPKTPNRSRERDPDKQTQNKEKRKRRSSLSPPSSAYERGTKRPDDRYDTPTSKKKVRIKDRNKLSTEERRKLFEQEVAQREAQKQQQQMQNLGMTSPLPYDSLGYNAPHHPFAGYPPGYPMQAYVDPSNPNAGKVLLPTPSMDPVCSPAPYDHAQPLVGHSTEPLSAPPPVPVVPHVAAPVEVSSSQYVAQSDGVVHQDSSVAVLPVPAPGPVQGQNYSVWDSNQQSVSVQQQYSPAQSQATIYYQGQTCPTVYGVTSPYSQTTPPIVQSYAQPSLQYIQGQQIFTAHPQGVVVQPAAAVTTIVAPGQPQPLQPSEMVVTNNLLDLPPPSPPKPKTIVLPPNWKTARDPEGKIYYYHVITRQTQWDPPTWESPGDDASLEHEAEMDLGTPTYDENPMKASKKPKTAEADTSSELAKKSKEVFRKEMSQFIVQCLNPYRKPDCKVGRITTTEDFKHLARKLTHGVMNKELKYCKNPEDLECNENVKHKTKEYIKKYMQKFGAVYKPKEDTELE

[33] = target: SMYD2 (Homo sapiens, UniProt Q9NRG4); test: Methyltransferase selectivity panel: SMYD2; type: biochemical; details: substrate Histone H4; top concentration 10 µM
[34] = target: SUV39H1 (Homo sapiens, UniProt O43463); test: Methyltransferase selectivity panel: SUV39H1; type: biochemical; details: substrate Histone H3; top concentration 10 µM
[35] = target: SUV39H2 (Homo sapiens, UniProt Q9H5I1); test: Methyltransferase selectivity panel: SUV39H2; type: biochemical; details: substrate Histone H3; top concentration 10 µM
[36] = target: SUV420H1TV2 (Homo sapiens, UniProt Q4FZB7); test: Methyltransferase selectivity panel: SUV420H1TV2; type: biochemical; details: substrate Nucleosomes; top concentration 10 µM
Chain of SUV420H1TV2 (Q4FZB7 1-393 isoform Q4FZB7-2): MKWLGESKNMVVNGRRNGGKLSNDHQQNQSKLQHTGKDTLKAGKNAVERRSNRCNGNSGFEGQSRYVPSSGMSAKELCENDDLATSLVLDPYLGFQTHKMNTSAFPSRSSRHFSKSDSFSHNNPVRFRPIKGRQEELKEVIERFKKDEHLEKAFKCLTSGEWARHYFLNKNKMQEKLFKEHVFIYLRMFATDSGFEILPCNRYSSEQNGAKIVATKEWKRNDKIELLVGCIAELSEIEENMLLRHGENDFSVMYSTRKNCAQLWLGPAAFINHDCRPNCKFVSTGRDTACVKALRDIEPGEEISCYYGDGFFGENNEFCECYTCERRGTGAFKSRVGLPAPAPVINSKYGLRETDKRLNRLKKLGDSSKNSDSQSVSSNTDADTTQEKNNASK

[37] = target: PRMT6 (Homo sapiens, UniProt Q96LA8); details: substrate Histone H3; top concentration 10 µM
Chain of PRMT6 (Q96LA8 whole entry): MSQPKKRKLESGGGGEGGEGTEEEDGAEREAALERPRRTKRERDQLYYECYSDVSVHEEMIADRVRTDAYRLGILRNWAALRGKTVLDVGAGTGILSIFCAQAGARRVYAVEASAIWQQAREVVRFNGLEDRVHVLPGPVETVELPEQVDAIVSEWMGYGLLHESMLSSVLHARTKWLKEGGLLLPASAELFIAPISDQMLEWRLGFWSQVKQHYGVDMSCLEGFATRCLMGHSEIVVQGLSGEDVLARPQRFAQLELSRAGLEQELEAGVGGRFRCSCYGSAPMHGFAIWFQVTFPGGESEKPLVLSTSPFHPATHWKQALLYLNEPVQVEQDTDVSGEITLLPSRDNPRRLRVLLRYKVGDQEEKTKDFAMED

[38] = tested on: KARPAS-422 B-cell lymphoma xenograft; test: KARPAS-422 B-cell lymphoma xenograft efficacy and PK/PD in CB-17 SCID mice; details: for antitumor efficacy (in words): 160 mg/kg BID

COc1cc(C)[nH]c(=O)c1CNC(=O)c1c(C)n([C@H](C)C2CCN(CC(F)(F)F)CC2)c2ccccc12 [compound 13, (R)-N-((4-Methoxy-6-methyl-2-oxo-1,2-dihydropyridin-3-yl)methyl)-2-methyl-1-(1-(1-(2,2,2-trifluoroethyl)piperidin-4-yl)ethyl)-1H-indole-3-carboxamide]
Clint [1]: 159 μL/min/mg protein
microsomal CLint ([1]; mouse, liver microsomes): > 100 µL/min/mg
PPB [2]: 97.9 % bound
PPB [3]: 89.9 % bound
PPB ([4]; dog plasma): 90.3 % bound
fraction unbound ([4]; plasma, in vitro, dog, read-out: fu (fraction unbound to plasma protein)): 0.089
PPB [5]: 92.8 % bound
Cmax unbound (value in brackets) [6]: 593 nM
Cmax unbound (value in brackets) [7]: 120 nM
potency in mutated EZH2 C663S (versus EZH2) [8]: decreased
time-dependent inhibition (TDI) of cytochrome P450 enzymes [9]: no time-dependent inhibition
inhibition of any target of the panel [10]: ≤ 50%
DNMT1 IC50 [11]: no inhibition or compound activity that could not be fit to an IC50 curve
DNMT3a IC50 [12]: no inhibition or compound activity that could not be fit to an IC50 curve
DNMT3b IC50 [13]: no inhibition or compound activity that could not be fit to an IC50 curve
DOT1L IC50 [14]: no inhibition or compound activity that could not be fit to an IC50 curve
G9a IC50 [15]: no inhibition or compound activity that could not be fit to an IC50 curve
GLP IC50 [16]: no inhibition or compound activity that could not be fit to an IC50 curve
MLL1 IC50 [17]: no inhibition or compound activity that could not be fit to an IC50 curve
MLL2 IC50 [18]: no inhibition or compound activity that could not be fit to an IC50 curve
MLL3 IC50 [19]: no inhibition or compound activity that could not be fit to an IC50 curve
MLL4 IC50 [20]: no inhibition or compound activity that could not be fit to an IC50 curve
NSD1 IC50 [21]: no inhibition or compound activity that could not be fit to an IC50 curve
NSD2 IC50 [22]: no inhibition or compound activity that could not be fit to an IC50 curve
NSD2 (E1099K) IC50 [23]: no inhibition or compound activity that could not be fit to an IC50 curve
PRDM9 IC50 [24]: no inhibition or compound activity that could not be fit to an IC50 curve
PRMT1 IC50 [25]: no inhibition or compound activity that could not be fit to an IC50 curve
PRMT3 IC50 [26]: no inhibition or compound activity that could not be fit to an IC50 curve
PRMT4 IC50 [27]: no inhibition or compound activity that could not be fit to an IC50 curve
PRMT5 IC50 [28]: no inhibition or compound activity that could not be fit to an IC50 curve
PRMT8 IC50 [29]: no inhibition or compound activity that could not be fit to an IC50 curve
SET1B IC50 [30]: no inhibition or compound activity that could not be fit to an IC50 curve
SET8 IC50 [31]: no inhibition or compound activity that could not be fit to an IC50 curve
SETD2 IC50 [32]: no inhibition or compound activity that could not be fit to an IC50 curve
SMYD2 IC50 [33]: no inhibition or compound activity that could not be fit to an IC50 curve
SUV39H1 IC50 [34]: no inhibition or compound activity that could not be fit to an IC50 curve
SUV39H2 IC50 [35]: no inhibition or compound activity that could not be fit to an IC50 curve
SUV420H1TV2 IC50 [36]: no inhibition or compound activity that could not be fit to an IC50 curve
PRMT6 IC50 [37]: no inhibition or compound activity that could not be fit to an IC50 curve
antitumor efficacy (in words) [38]: efficacious
antitumor efficacy (in words) ([38]; listed as CPI-1205): robust antitumor effects
time to observed tumor regression ([38]; 160 mg/kg po BID, female CB-17 SCID mice): ≤ 2 weeks
